From patent publication US8586755B2, “Substituted nicotinamides as KCNQ2/3 modulators” (Grünenthal GmbH, priority 2009, dated 2013)

Molecular target: T1, KCNQ2/3 channels (Homo sapiens, UniProt O43525+O43526)
T1 construct: expressed in transfected cells
Assay: Fluorescence assay using a voltage sensitive dye (fluorimetry)
Format: cell-based
Details: CHO-K1 cells expressing KCNQ2/3 channels; for EC50: agonistic activity; for Emax: retigabine 50 μM = 100%, read-out: Fluorimetry % efficacy (retigabine 50 μM = 100%)
Method in brief: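 Agonist EC50s come from the F2 vs F1 fluorescence comparison, F2 taken at the peak after KCl depolarisation (92 mM final) and F1 after 30 min compound exposure at room temperature. Assay uses KCNQ2/3-expressing CHO-K1 cells stained 45 min with a red voltage-sensitive dye in pH 7.4 ES buffer.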

Row | SMILES | EC50 | Emax
1 | O=C(NCc1ccc(F)cc1O)c1cccnc1SCCCc1ccc(F)cc1 [compound 173, N-[(4-Fluoro-2-hydroxy-phenyl)-methyl]-2-[3-(4-fluorophenyl)-propylsulfanyl]-pyridine-3-carboxylic acid amide] | 156 nM | 185%
2 | O=C(NCc1ccco1)c1cccnc1SCCCc1ccc(F)cc1 [compound 174, 2-[3-(4-Fluorophenyl)-propylsulfanyl]-N-(furan-2-yl-methyl)-pyridine-3-carboxylic acid amide] | 134 nM | 213%
3 | Cc1ccc(CNC(=O)c2cccnc2SCCCc2ccc(F)cc2)o1 [compound 175, 2-[3-(4-Fluorophenyl)-propylsulfanyl]-N-[(5-methyl-furan-2-yl)-methyl]-pyridine-3-carboxylic acid amide] | 126 nM | 173%
4 | CC(CCc1ccc(F)cc1)Sc1ncccc1C(=O)NCc1ccc(F)cc1 (stereo not drawn) [compound 176, N-[(4-Fluorophenyl)-methyl]-2-[[3-(4-fluorophenyl)-1-methyl-propyl]sulfanyl]-pyridine-3-carboxylic acid amide] | 40 nM | 108%
5 | CC(C)CCNC(=O)c1cccnc1SC(C)CCc1ccc(F)cc1 (stereo not drawn) [compound 177, 2-[[3-(4-Fluorophenyl)-1-methyl-propyl]sulfanyl]-N-(3-methyl-butyl)-pyridine-3-carboxylic acid amide] | 76 nM | 192%
6 | CC(CCc1ccc(F)cc1)Sc1ncccc1C(=O)NCC1C2CCC1CC2 (stereo not drawn) [compound 178, N-(7-Bicyclo[2.2.1]heptanyl-methyl)-2-[[3-(4-fluorophenyl)-1-methyl-propyl]sulfanyl]-pyridine-3-carboxylic acid amide] | 96 nM | 270%
7 | O=C(NCC1CCCO1)c1cccnc1SCCC(F)(F)c1ccc(F)cc1 (stereo not drawn) [compound 179, 2-[[3,3-Difluoro-3-(4-fluorophenyl)-propyl]sulfanyl]-N-(tetrahydro-furan-2-yl-methyl)-pyridine-3-carboxylic acid amide] | 378 nM | 234%
8 | COC(CNC(=O)c1cccnc1SCCCc1ccc(F)cc1)C(C)(C)C (stereo not drawn) [compound 182, 2-[3-(4-Fluorophenyl)-propylsulfanyl]-N-(2-methoxy-3,3-dimethyl-butyl)-pyridine-3-carboxylic acid amide] | 366 nM | 110%
9 | Cc1cccc(CNC(=O)c2cccnc2SCCC(F)(F)c2ccc(F)cc2)c1 [compound 183, 2-[[3,3-Difluoro-3-(4-fluorophenyl)-propyl]sulfanyl]-N-(m-tolyl-methyl)-pyridine-3-carboxylic acid amide] | 43 nM | 109%
10 | CCCNC(=O)c1cccnc1SCCC(F)(F)c1ccc(F)cc1 [compound 185, 2-[[3,3-Difluoro-3-(4-fluorophenyl)-propyl]sulfanyl]-N-propyl-pyridine-3-carboxylic acid amide] | 167 nM | 212%
11 | O=C(NCC1CCOCC1)c1cccnc1SCCC(F)(F)c1ccc(F)cc1 [compound 189, 2-[[3,3-Difluoro-3-(4-fluorophenyl)-propyl]sulfanyl]-N-(tetrahydro-pyran-4-yl-methyl)-pyridine-3-carboxylic acid amide] | 287 nM | 161%
12 | O=C(NCc1ccco1)c1cccnc1SCCC(F)(F)c1ccc(F)cc1 [compound 190, 2-[[3,3-Difluoro-3-(4-fluorophenyl)-propyl]sulfanyl]-N-(furan-2-yl-methyl)-pyridine-3-carboxylic acid amide] | 26 nM | 214%
13 | COC(C)CNC(=O)c1cccnc1SCCC(F)(F)c1ccc(F)cc1 (stereo not drawn) [compound 194, 2-[[3,3-Difluoro-3-(4-fluorophenyl)-propyl]sulfanyl]-N-(2-methoxy-propyl)-pyridine-3-carboxylic acid amide] | 232 nM | 203%
14 | CCC(CNC(=O)c1cccnc1SCCC(F)(F)c1ccc(F)cc1)OC (stereo not drawn) [compound 195, 2-[[3,3-Difluoro-3-(4-fluorophenyl)-propyl]sulfanyl]-N-(2-methoxy-butyl)-pyridine-3-carboxylic acid amide] | 48 nM | 122%
15 | CN(C)CCNC(=O)c1cccnc1SCCC(F)(F)c1ccc(F)cc1 [compound 198, 2-[[3,3-Difluoro-3-(4-fluorophenyl)-propyl]sulfanyl]-N-(2-dimethylaminoethyl)-pyridine-3-carboxylic acid amide] | 8840 nM | 110%
16 | CC(CCc1ccc(F)c(F)c1)Sc1ncccc1C(=O)NCc1ccc(F)cc1 (stereo not drawn) [compound 199, 2-[[3-(3,4-Difluoro-phenyl)-1-methyl-propyl]sulfanyl]-N-[(4-fluorophenyl)-methyl]-pyridine-3-carboxylic acid amide] | 20 nM | 124%
17 | CC(C)CCNC(=O)c1cccnc1SC(C)CCc1ccc(F)c(F)c1 (stereo not drawn) [compound 200, 2-[[3-(3,4-Difluoro-phenyl)-1-methyl-propyl]sulfanyl]-N-(3-methyl-butyl)-pyridine-3-carboxylic acid amide] | 40 nM | 230%
18 | CC(CCc1cccc(F)c1)Sc1ncccc1C(=O)NCc1ccc(F)cc1 (stereo not drawn) [compound 201, N-[(4-Fluorophenyl)-methyl]-2-[[3-(3-fluorophenyl)-1-methyl-propyl]sulfanyl]-pyridine-3-carboxylic acid amide] | 40 nM | 128%
19 | CC(C)CCNC(=O)c1cccnc1SC(C)CCc1cccc(F)c1 (stereo not drawn) [compound 202, 2-[[3-(3-Fluorophenyl)-1-methyl-propyl]sulfanyl]-N-(3-methyl-butyl)-pyridine-3-carboxylic acid amide] | 71 nM | 235%
20 | CC(C)CCNC(=O)c1cccnc1SC(C)CCc1cccc(C(F)(F)F)c1 (stereo not drawn) [compound 203, N-(3-Methyl-butyl)-2-[[1-methyl-3-[3-(trifluoromethyl)phenyl]-propyl]sulfanyl]-pyridine-3-carboxylic acid amide] | 20 nM | 233%
21 | O=C(NCc1ccc(F)cc1)c1cccnc1SCCC(F)(F)c1ccc(F)c(F)c1 [compound 204, 2-[[3-(3,4-Difluoro-phenyl)-3,3-difluoro-propyl]sulfanyl]-N-[(4-fluorophenyl)-methyl]-pyridine-3-carboxylic acid amide] | 11 nM | 125%

Continued, values first:

Row | EC50 | Emax | SMILES
22 | 1550 nM | 254% | O=C(NCC1CCCO1)c1cccnc1SCCCc1ccc(F)cc1 (stereo not drawn) [compound 181, 2-[3-(4-Fluorophenyl)-propylsulfanyl]-N-(tetrahydro-furan-2-yl-methyl)-pyridine-3-carboxylic acid amide]
23 |  | 23% | Cc1cc(C)cc(CNC(=O)c2cccnc2SCCC(F)(F)c2ccc(F)cc2)c1 [compound 184, 2-[[3,3-Difluoro-3-(4-fluorophenyl)-propyl]sulfanyl]-N-[(3,5-dimethyl-phenyl)-methyl]-pyridine-3-carboxylic acid amide]
24 | 236 nM | 191% | CCCCCCNC(=O)c1cccnc1SCCC(F)(F)c1ccc(F)cc1 [compound 186, 2-[[3,3-Difluoro-3-(4-fluorophenyl)-propyl]sulfanyl]-N-hexyl-pyridine-3-carboxylic acid amide]
25 | 805 nM | 231% | O=C(NCC1CCOC1)c1cccnc1SCCC(F)(F)c1ccc(F)cc1 (stereo not drawn) [compound 187, 2-[[3,3-Difluoro-3-(4-fluorophenyl)-propyl]sulfanyl]-N-(tetrahydro-furan-3-yl-methyl)-pyridine-3-carboxylic acid amide]
26 | 315 nM | 210% | O=C(NCC1CCCOC1)c1cccnc1SCCC(F)(F)c1ccc(F)cc1 (stereo not drawn) [compound 188, 2-[[3,3-Difluoro-3-(4-fluorophenyl)-propyl]sulfanyl]-N-(tetrahydro-pyran-3-yl-methyl)-pyridine-3-carboxylic acid amide]
27 | 37 nM | 202% | Cc1ccc(CNC(=O)c2cccnc2SCCC(F)(F)c2ccc(F)cc2)o1 [compound 191, 2-[[3,3-Difluoro-3-(4-fluorophenyl)-propyl]sulfanyl]-N-[(5-methyl-furan-2-yl)-methyl]-pyridine-3-carboxylic acid amide]
28 | 32 nM | 195% | CCCCCNC(=O)c1cccnc1SCCC(F)(F)c1ccc(F)cc1 [compound 192, 2-[[3,3-Difluoro-3-(4-fluorophenyl)-propyl]sulfanyl]-N-pentyl-pyridine-3-carboxylic acid amide]
29 | 371 nM | 206% | COC(C)CCNC(=O)c1cccnc1SCCC(F)(F)c1ccc(F)cc1 (stereo not drawn) [compound 193, 2-[[3,3-Difluoro-3-(4-fluorophenyl)-propyl]sulfanyl]-N-(3-methoxy-butyl)-pyridine-3-carboxylic acid amide]
30 | 3710 nM | 190% | COC(=O)CCNC(=O)c1cccnc1SCCC(F)(F)c1ccc(F)cc1 [compound 196, 3-[[2-[[3,3-Difluoro-3-(4-fluorophenyl)-propyl]sulfanyl]-pyridine-3-carbonyl]amino]-propionic acid methyl ester]
31 | 14700 nM | 128% | O=C(O)CCNC(=O)c1cccnc1SCCC(F)(F)c1ccc(F)cc1 [compound 197, 3-[[2-[[3,3-Difluoro-3-(4-fluorophenyl)-propyl]sulfanyl]-pyridine-3-carbonyl]amino]-propionic acid]
32 | 28 nM | 294% | O=C(NCC12CCC(CC1)C2)c1cccnc1SCCC(F)(F)c1ccc(F)cc1 [compound 205, N-(1-Bicyclo[2.2.1]heptanyl-methyl)-2-[[3,3-difluoro-3-(4-fluorophenyl)-propyl]sulfanyl]-pyridine-3-carboxylic acid amide]
